Results: PMC11979685, “Synthesis of Derivatives of the Antibiotic Albicidin: The N‐Terminal Fragment as Key to Control Potency and Resistance Mediated by the Binding Protein AlbA” (Chemistry (Weinheim an Der Bergstrasse, Germany), 2025)
Values after ≈ are worked out from the molar mass of the structure shown.

How the values were obtained:
[1] = tested on: E. coli DSM 1116; assay: Qualitative growth inhibition assay in presence of AlbAS; assay type: cell-based, Escherichia coli
Protocol: Finally, we investigated if synthetic variations of building block A are able to evade the effects of the resistance protein AlbA. Therefore, we carried out a qualitative growth inhibition assay with derivatives 4–24 in presence of an equimolar amount of purified AlbAS. After incubation of the cultures overnight, the growth of the bacteria was evaluated. The ability of AlbAS to sufficiently sequester an albicidin derivative from the supernatant allowed E. coli cells to accumulate in a visible cell pellet. Second, we performed a quantitative transcription‐activation reporter assay[22] to assess transcriptional regulation by AlbAL. The promoter sequence pAlbA was inserted into a reporter vector that encodes the ilux luminescence cassette.[22] The luminescence signals elicited by ligand binding of synthetic variations to AlbAL was compared and normalized to the signal induced by 2nd Gen albicidin 2 and are hereby referred to as relative transcription activation (TA^%). The combination of both assays prompted us to categorize the experimental outcomes (Figure 4) in four groups:
Figure 4 Characterization of AlbA resistance against derivatives 2, 4–24. GIA: Qualitative growth inhibition assay against E. coli DSM 1116. (−): Derivative unable to inhibit the growth of E. coli in presence of AlbAS. (+): Derivative inhibits growth of E. coli in presence of AlbAS. […] For details see SI Figure 9. Transcription activation (TA) assay: luminescence elicited by 2nd Gen albicidin 2 from the TA assay was normalized to 100 % and the luminescence signal of tested derivatives provided: relative luminescence [%]=luminescence [derivative]/luminescence [2]×100 %. Green bars indicate low relative luminescence (<40 %) and red bars indicate high relative luminescence (>50 %). Error bars show the standard deviations of triplicate measurements. TEXT PRINTED IN THE PICTURE: 2: E. coli inhibition +AlbA: − | 4: E. coli inhibition +AlbA: + | 9: E. coli inhibition +AlbA: + | 11: E. coli inhibition +AlbA: + | 12: E. coli inhibition +AlbA: + | 13: E. coli inhibition +AlbA: ~ | 14: E. coli inhibition +AlbA: − | 16: E. coli inhibition +AlbA: − | 17: E. coli inhibition +AlbA: − | 18: E. coli inhibition +AlbA: − | 19: E. coli inhibition +AlbA: − | 20: E. coli inhibition +AlbA: + | 21: E. coli inhibition +AlbA: − | 22: E. coli inhibition +AlbA: − | 23: E. coli inhibition +AlbA: − | 24: E. coli inhibition +AlbA: − […]
1.3 Resistance assessment against AlbA
E. coli strain DSM 1116 was used for all susceptibility testing. E. coli BL21 Star (DE3) cells (Invitrogen) were used for protein expression. LB medium (Lysogeny broth: 10 g/L peptone, 5 g/L yeast extract, 5 g/L NaCl) was used as broth or in agar plates for all experiments. Incubation steps took place at 37°C and 180 rpm shaking if not stated otherwise. Throughout the study, 2nd Gen albicidin 2 was used as albicidin standard due to its better stability, availability and similar activity compared to natural albicidin in presence of resistance factors.[3,4]
AlbA expression and purification
N-terminally His-tagged AlbA was expressed using a pET28a vector as described previously.[5] In brief, E. coli BL21(DE3) cells were transformed with pET28-AlbA plasmid and grown in LB medium with kanamycin. LB broth supplemented with 50 µg/mL kanamycin was inoculated from over-night cultures and grown at 37°C until an OD600 of 0.6 was reached. After induction with 0.2 mM isopropyl β-D-1-thiogalactopyranoside (IPTG) the proteins were expressed at 18°C for 20 h. The cells were harvested by centrifugation (4,000 x G, 20 min), resuspended in lysis buffer (50 mM Tris, pH 8.0, 500 mM NaCl, 10% glycerol) and processed in a cell disruptor (Constant Systems Ltd) at 25 kPsi before centrifugation at 50,000 x G, at 4°C for 45 min. The lysate was incubated with Pure Cube Ni-NTA agarose (Cube Biotech, Germany) at 4°C for 20 min while shaking. The slurry was transferred to empty gravity-flow […]

[2] = tested on: Bacillus subtilis DSM 10; assay: MIC determination (broth microdilution); assay type: cell-based; conditions: DSM10, read-out: MIC B. sub.
Protocol: (§1) After completing the syntheses, the antibacterial activity of A‐variations 4–24 was assessed by determination of MIC values against a basic set of gram‐negative and gram‐positive bacteria (Table 1). The monocyclic derivatives 4–8 featuring a cyano‐, trifluoromethyl‐, methoxy‐ and fluoro‐ substituent in para‐position were very active against the gram–negative E. coli and S. typhimurium strains with MIC values in the same range as 3rd Gen albicidin 3 or ciprofloxacin which is the gold standard for gyrase inhibitors. […] These findings are in agreement with previous studies showing good activities for cyano, trifluoromethyl, methoxy and fluoro substituents in the para‐position of different aromatic rings in the building block A.[12, 13] The activity of the monocyclic derivatives 4–8 against the gram‐positive strains B. subtilis and M. luteus were similar but slightly less pronounced compared to the lead structure 3.
(§2) 1.1 Determination of Minimal Inhibitory Concentrations (MIC)
(§3) Minimal inhibitory concentration (MIC) against selected bacterial strains values were determined according to the ninth edition of the Approved Standard M07-A9.[1] 20 μL of cryo stocks of bacterial strains were suspended in 20 mL LB medium (Lysogeny broth: 10 g/L peptone, 5 g/L yeast extract, 5 g/L NaCl). Following incubation overnight at 37°C, 200 rpm, the test inoculum was adjusted by 0.5 McFarland Standard in cation adjusted Mueller-Hinton broth (BBLTM Mueller-Hinton Broth II, Becton, Dickinson and Company, New Jersey, USA) to approximately 1x10^6 CFU mL-1. 95 μL of the bacterial inoculum were applied per well of a 96-well plate. Albicidin and albicidin derivatives 3−24 were dissolved in DMSO (100%) to an initial concentration of 2560 μg/mL and serially diluted in DMSO (100%). Initial solution and serial dilutions of Ciprofloxacin were prepared in 0.1 N HCL, respectively. 5 μL of each antibiotic dilution were added to the microdilution tray to reach albicidin concentrations of 128 μg/mL to 0.016 μg/mL per well. One row of each well plate served as a growth control without antibiotic substances and another row of the microdilution tray served as sterility control (only MHB II - media). The antimicrobial effect of the solvent (DMSO) was tested by adding 5 μL DMSO to several wells. Purity check and cell titer control were performed according to International S tandard M07-A9 on Mueller-Hinton II Agar (Mueller Hinton II Broth, 15 g/L agar-agar). Both microdilution trays and agar plates were incubated at 30−37°C for 16 h and subsequently analyzed for growth inhibition by naked eye. The following primary panel of microorganisms were purchased from German Collection of Microorganisms and Cell Cultures (DSMZ):
(§4) Escherichia coli DSM 1116
(§5) Micrococcus luteus DSM 1790
(§6) Mycobacterium phlei DSM 750
(§7) Salmonella typhimurium TA100 was kindly provided by Prof. Dr. Vera Meyer (Technische Universität Berlin). […]
(§8) was purchased as part of the single gene knockout library of E. coli K12 BW25113 (Keio collection) from Horizon Discovery group plc (Cambridge, UK).

[3] = tested on: E. coli BW25113; assay: MIC determination (broth microdilution); assay type: cell-based; conditions: Escherichia coli, BW25113; read-out: MIC E. coli BW25113
Protocol: as §1, §2, §3, §4, §5, §6, §7, §8

[4] = tested on: E. coli DSM1116; assay: MIC determination (broth microdilution); assay type: cell-based; conditions: Escherichia coli, DSM1116; read-out: MIC E. coli DSM1116
Protocol: as §1, §2, §3, §4, §5, §6, §7, §8

[5] = tested on: Micrococcus luteus DSM 1790; assay: MIC determination (broth microdilution); assay type: cell-based; conditions: DSM1790, read-out: MIC M. luteus
Protocol: as §1, §2, §3, §4, §5, §6, §7, §8

[6] = tested on: Mycobacterium phlei DSM 750; assay: MIC determination (broth microdilution); assay type: cell-based; conditions: Mycolicibacterium phlei, DSM750; read-out: MIC M. phlei
Protocol: as §1, §2, §3, §4, §5, §6, §7, §8

[7] = tested on: Salmonella typhimurium TA100; assay: MIC determination (broth microdilution); assay type: cell-based; conditions: Salmonella enterica, read-out: MIC S. typh.
Protocol: as §1, §2, §3, §4, §5, §6, §7, §8

[8] = tested on: E. coli; assay: MIC against E. coli in presence of 50 % human serum; assay type: cell-based; conditions: Escherichia coli; E. coli in presence of 50 % human serum; read-out: MICEc 50%HS
[9] = target: E. coli DNA gyrase (Escherichia coli, UniProt P0AES4); assay: E. coli gyrase DNA cleavage assay; assay type: biochemical; set-up: key to Gyrase inhibition strong+ / weak −: + strong inhibition; − weak inhibition in comparison to compound 16; conditions: for Gyrase inhibition strong+ / weak −: qualitative DNA cleavage assay at 1 μM and 10 μM, in comparison to compound 16
E. coli DNA gyrase, sequence (P0AES4 whole entry): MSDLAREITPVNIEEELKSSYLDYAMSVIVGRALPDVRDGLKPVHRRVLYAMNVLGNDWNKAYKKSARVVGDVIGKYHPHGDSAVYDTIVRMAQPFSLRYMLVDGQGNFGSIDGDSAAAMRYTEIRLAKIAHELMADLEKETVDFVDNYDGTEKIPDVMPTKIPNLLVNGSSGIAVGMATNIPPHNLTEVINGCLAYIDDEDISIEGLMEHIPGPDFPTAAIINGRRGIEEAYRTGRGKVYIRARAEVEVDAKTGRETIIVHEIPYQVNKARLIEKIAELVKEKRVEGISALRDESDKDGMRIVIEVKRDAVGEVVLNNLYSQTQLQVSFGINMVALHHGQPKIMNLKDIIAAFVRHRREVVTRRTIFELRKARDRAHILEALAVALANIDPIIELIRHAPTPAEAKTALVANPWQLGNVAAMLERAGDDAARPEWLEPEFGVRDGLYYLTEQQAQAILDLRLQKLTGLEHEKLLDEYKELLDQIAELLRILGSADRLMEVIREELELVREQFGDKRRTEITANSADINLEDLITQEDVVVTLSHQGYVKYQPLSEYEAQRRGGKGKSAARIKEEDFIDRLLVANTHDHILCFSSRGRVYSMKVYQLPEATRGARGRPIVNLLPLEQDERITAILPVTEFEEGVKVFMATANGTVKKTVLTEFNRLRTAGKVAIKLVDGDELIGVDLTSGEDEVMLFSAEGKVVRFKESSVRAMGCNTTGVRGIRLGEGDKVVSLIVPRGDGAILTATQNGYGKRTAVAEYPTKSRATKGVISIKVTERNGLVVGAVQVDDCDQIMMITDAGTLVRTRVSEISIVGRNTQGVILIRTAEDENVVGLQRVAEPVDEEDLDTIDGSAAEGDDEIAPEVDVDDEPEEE
Protocol: The target activity of the synthesized derivatives was investigated using a DNA cleavage assay with purified and enzymatically active E. coli DNA gyrase[8] (see SI). In this assay, albicidin‐stabilized complexes of gyrase and plasmid DNA are trapped, and subsequently denatured and deproteinated to reveal DNA linearized by gyrase. […] For the best performing compounds, which were able to fully stabilize the cleavage complex at a concentration of 1 μM, the concentrations at half‐maximum cleavage (CC50) were determined (Figure 3).
1.2 Escherichia coli Gyrase Cleavage Inhibition Assay
E. coli gyrase cleavage assays were executed by setting up a master mix including 0.25 µg relaxed plasmid (pBR322) in 35 mM Tris-HCl (pH 7.5), 24 mM KCl, 4 mM MgCl2, 2 mM dithithreitol (DTT), 1.8 mM spermidine, 1 mM ATP, 6.5% (wt/vol) glycerol and 0.1 mg/ml bovine serum albumin per reaction.
Of this stock solution, 13.2 µL was aliquoted for each reaction into 1.5 mL Eppendorf tubes and supplemented with 0.3 µL of the appropriate compound dilution or DMSO with a […] DMSO concentration of 2% per reaction. The reactions were started with 1.5 µL of 50 nM (pre-screening) or 40 nM (IC50 determinations) wt E. coli gyrase in dilution buffer (50 mM Tris-HCl (pH 7.5), 100 mM KCl, 2 mM DTT, 1 mM EDTA, and 50% (wt/vol) glycerol) for a […] volume of 15 µL. Reactions were incubated at 37°C for 30 minutes before addition of 1.5 µL 0.2% (wt/vol) SDS and 0.75 µL proteinase K (0.2 mg/mL) and further incubation at 37°C for 30 minutes to trap cleavage complexes. Reactions were stopped with 15 µL chloroform:isoamyl alcohol (24: 1 v/v) and 15 µL of STEB (40% (wt/vol) sucrose, […] Tris-Cl pH 8, 10 mM EDTA, 0.5 mg/mL bromophenol blue). After brief vortexing and centrifugation at 2,300g for 5 min, 15 µL of the aqueous phase was loaded onto 1% (wt/vol) agarose in TAE (Tris-acetate […] and EDTA […]) gels supplemented with 10 µg/mL ethidium bromide.
The gels were run at 85 V for 2 hours.
DNA was visualized (602/50, UV Trans, auto optimal exposure) with a ChemiDoc MP (Bio-Rad Laboratories Inc., equipped with ImageLab Touch Software v2.0.0.27) and the percentage of cleaved DNA relative to the total amount of DNA per lane was determined with ImageJ software.[2] IC50 curves were generated in GraphPad Prism (v10.0.0) using the non-linear regression curve fit variable slope with four parameters and least squares regression.

[10] = Reverse-phase HPLC retention time as estimate of lipophilicity; assay type: physicochemical; conditions: indicator of lipophilicity
From the text: As mentioned before, albicidin 1 is a rather hydrophobic compound and improving its aqueous solubility is desirable. The lipophilicity of drug molecules is commonly characterized by the octanol/water partition coefficient (logP). An alternative approach relies on the correlation between lipophilicity and the retention time (Rt) on a reverse‐phase HPLC column.[31] This approach works well if structurally related compounds are compared as is the case for this SAR study. Rt was thus used to estimate the hydrophilicity of albicidin 1 and its derivatives 2–24 (Table 1).[32]

Row | SMILES | GIA: E. coli inhibition +AlbA ([1]; E. coli DSM 1116, 10 µM compound with equimolar AlbAS) | bioactivity in presence of AlbAS (in words) ([1]; E. coli, equimolar purified AlbAS) | MIC [2] [µg/mL] | MIC [3] [µg/mL] | MIC [4] [µg/mL] | MIC [5] [µg/mL] | MIC [6] [µg/mL] | MIC [7] [µg/mL] | MIC [8] [µg/mL] | CC50 ([9]; E. coli gyrase DNA cleavage, read-out: CC50 (concentration at half-maximum cleavage)) [nM] | Gyrase inhibition strong+ / weak − [9] | Rt (retention time) [10] [min]
1 | COc1c(NC(=O)c2ccc(NC(=O)c3ccc(NC(=O)[C@H](Cc4cn[nH]n4)NC(=O)c4ccc(NC(=O)/C(C)=C/c5ccc(O)cc5)cc4)cc3)c(OC)c2O)ccc(C(=O)O)c1O [compound 2, reference compound] | − | deactivated |  |  |  |  |  |  |  |  |  | 
2 | COc1c(NC(=O)c2ccc(NC(=O)c3ccc(NC(=O)[C@H](Cc4cn[nH]n4)NC(=O)c4ccc(NC(=O)/C(C)=C/c5ccc(O)cc5)cc4)cn3)c(OC)c2O)ccc(C(=O)O)c1O [compound 3, reference compound] |  |  | 0.031 (≈ 0.035 µM) | 0.016 (≈ 0.0181 µM) | 0.016 (≈ 0.0181 µM) | 0.031 (≈ 0.035 µM) | 0.25 (≈ 0.282 µM) | 0.016 (≈ 0.0181 µM) | 0.5 | 66 | + | 8.15
3 | COc1c(NC(=O)c2ccc(NC(=O)c3ccc(NC(=O)[C@H](Cc4c[nH]nn4)NC(=O)c4ccc(NC(=O)c5ccc(C(F)(F)F)cc5)cc4)cn3)c(OC)c2O)ccc(C(=O)O)c1O [compound 5] |  |  | 0.125 (≈ 0.139 µM) | 0.063 (≈ 0.0702 µM) | 0.016 (≈ 0.0178 µM) | 0.5 (≈ 0.557 µM) | 1 (≈ 1.11 µM) | ≤ 0.016 | 4 |  | − | 8.99
4 | COc1ccc(C(=O)Nc2ccc(C(=O)N[C@@H](Cc3c[nH]nn3)C(=O)Nc3ccc(C(=O)Nc4ccc(C(=O)Nc5ccc(C(=O)O)c(O)c5OC)c(O)c4OC)nc3)cc2)nc1 [compound 6] |  |  | 0.125 (≈ 0.145 µM) | ≤ 0.016 | 0.031 (≈ 0.036 µM) | 0.125 (≈ 0.145 µM) | 2 (≈ 2.32 µM) | ≤ 0.016 | 2 |  | + | 8.29
5 | COc1c(NC(=O)c2ccc(NC(=O)c3ccc(NC(=O)[C@H](Cc4c[nH]nn4)NC(=O)c4ccc(NC(=O)c5ccc6nccnc6c5)cc4)cn3)c(OC)c2O)ccc(C(=O)O)c1O [compound 15] |  |  | 0.125 (≈ 0.142 µM) | 0.031 (≈ 0.0352 µM) | 0.031 (≈ 0.0352 µM) | 0.25 (≈ 0.284 µM) | 2 (≈ 2.27 µM) |  |  |  | + | 7.71
